From patent US12103914B2, “Compositions of biologically active menaquinol derivatives and methods of treatment” (Epizon Pharma, Inc., priority 2020, dated 2024)

System: vascular calcification and tissue calcification in patient with moderate calciphylaxis
Assay: Treatment of patients diagnosed with moderate calciphylaxis (case examples)
Type: in vivo, human
Protocol: This example describes the administration of the disclosed compounds to subjects diagnosed with calciphylaxis. Typical symptoms include presentation of characteristic painful skin lesions (Nigwekar et al. (2015) Calciphylaxis: Risk Factors, Diagnosis, and Treatment. Am. J. Kidney Dis. 66:133-46). Definitive diagnosis of calciphylaxis is achieved via skin biopsy. Further conditions need to be considered for correct diagnosis.
The dosage form is a 5 mg, 10 mg, 25 mg, 50 mg or 100 mg soft-gel capsule. Two 50 mg capsules are administered once daily to the 100 mg dosage cohort. […]

Row | Substance | reduction in tissue calcification (45 kg patient, 20 mg, 10 weeks) | reduction in vascular calcification (suggested by change in examined biomarker levels) (45 kg patient, 20 mg, 10 weeks) | reduction in tissue calcification (65 kg patient, 100 mg, 8 weeks) | reduction in vascular calcification (suggested by change in examined biomarker levels) (65 kg patient, 100 mg, 8 weeks) | reduction in tissue calcification (70 kg patient, 50 mg, 3 months) | reduction in vascular calcification (suggested by change in examined biomarker levels) (70 kg patient, 50 mg, 3 months)
1 | Calcium salt of Menaquinol-7 | 15% | ~20% | 10% | ~10% |  | 
2 | Potassium salt of Menaquinol-7 |  |  |  |  | 20% | ~25%
